Assay [1] concerns the target constitutive proteasome β5c unit (Homo sapiens, UniProt P20618+P28074). The assay can be described thus: Caliper-based proteasome enzymatic activity assay, β5c. The note with it: human recombinant constitutive proteasome 0.3 nM, FAM-peptide substrate 1 μM, 3 h at rt; read-out: β5c subunit IC50. In kind it is biochemical. As to the method: (§1) A Caliper-based proteasome assay (Caliper Life Sciences, Hopkinton, Mass.) was used to measure inhibition of the immunoproteasome LMP7/B5i subunit, the immunoproteasome LPM2/β1i subunit, and the constitutive proteasome β5c unit for a compound of Formula (I). For LMP7 and β5c, serial dilutions of test compounds were incubated with either human recombinant immunoprotcasome or constitutive proteasome (0.3 nM enzyme) and a carboxyfluorescein (FAM)-labeled peptide substrate FAM-TYETFKSIMKKSPF-NH2 (1 μM) at it for 3 h. The reaction was then terminated with a buffer containing the known proteasome inhibitor carfilzomib at a concentration of 5 uM. For LMP2, serial dilutions of test compounds were incubated with human recombinant immunoproteasome proteasome (0.3 nM enzyme) and a carboxyfluorescein (FAM)-labeled peptide substrate FAM-[…]-NH2 (1 μM) at rt for 2 h. The reaction was then terminated with a buffer containing the known proteasome inhibitor ixazomib at a concentration of 6.7 uM. The reaction buffer was 20 mM Hepes pH 7.4, 0.01% bovine serum albumin, 0.015% SDS, 0.5 mM EDTA, 1%0/DMSO. The peptide cleavage reaction product was quantified on a Caliper LabChip 3000. Percent inhibition was calculated for each compound dilution and the concentration that produced 50% inhibition was calculated. This value is presented as the IC50.

Assay [2] has as its target immunoproteasome LMP7/B5i subunit (Homo sapiens, UniProt P20618+P28062). The assay can be described thus: Caliper-based proteasome enzymatic activity assay, LMP7. It counts as biochemical. The note with it: human recombinant immunoproteasome 0.3 nM, FAM-peptide substrate 1 μM, 3 h at rt. The procedure:
as §1

The term IC50 denotes the concentration at which inhibition is half-maximal.

Structures are written as SMILES.

As for `Cc1ccc(C[C@H](NC(=O)OC[C@H]2[C@H]3C[C@H]3CN2C(=O)C(C#N)=CC(C)(C)N2CCC(F)(F)C2)B(O)O)cc1` [Example 116, ((R)-1-(((((1S,2R,5R)-3-(2-cyano-4-(3,3-difluoropyrrolidin-1-yl)-4-methylpent-2-enoyl)-3-azabicyclo[3.1.0]hexan-2-yl)methoxy)carbonyl)amino)-2-(p-tolyl)ethyl)boronic acid], the half-inhibitory concentration (IC50) is greater than 5000 nM in assay [1] and 62 nM in assay [2].
The matching figures for `CC(C)(C)C=C(C#N)C(=O)N1CCOC[C@@H]1COC(=O)N[C@@H](Cc1coc2ccccc12)B(O)O` [Example 43, ((R)-2-(benzofuran-3-yl)-1-(((((R)-4-(2-cyano-4,4-dimethylpent-2-enoyl)morpholin-3-yl)methoxy)carbonyl)amino)ethyl)boronic acid]: 34 nM and 2 nM.
For `Cc1ccc(C[C@H](NC(=O)OC[C@H]2[C@H]3C[C@H]3CN2C(=O)C(C#N)=CC(C)(C)N2CCOCC2)B(O)O)cc1` [Example 75] the same measures were 1020 nM and 1.1 nM.
For `CC(C)(C)/C=C(\C#N)C(=O)N1CCNC[C@@H]1COC(=O)N[C@@H](Cc1ccccc1)B(O)O` [Example 128, ((R)-1-(((((R)-1-((E)-2-cyano-4,4-dimethylpent-2-enoyl)piperazin-2-yl)methoxy)carbonyl)amino)-2-phenylethyl)boronic acid] the same measures were 2730 nM and 2.3 nM.
As to `C=CC(=O)N1CCOC[C@@H]1COC(=O)N[C@@H](Cc1coc2ccccc12)B(O)O` [Example 93, ((R)-1-(((((R)-4-acryloylmorpholin-3-yl)methoxy)carbonyl)amino)-2-(benzofuran-3-yl)ethyl)boronic acid], the half-inhibitory concentration (IC50) in assay [1] was 165 nM; in assay [2], 3 nM.
Take `COc1ccc(C[C@H](NC(=O)OC[C@H]2CCCCN2C(=O)C(C#N)=CC(C)(C)C)B(O)O)cc1` [Example 70, ((R)-1-(((((R)-1-(2-cyano-4,4-dimethylpent-2-enoyl)piperidin-2-yl)methoxy)carbonyl)amino)-2-(4-methoxyphenyl)ethyl)boronic acid]: the results for the 50% inhibitory concentration (IC50) in assay [1] and in assay [2] were 1840 nM and 6.5 nM, respectively.
For `CC(C)(C=C(C#N)C(=O)N1CCCC[C@@H]1COC(=O)N[C@@H](Cc1coc2ccccc12)B(O)O)N1CCOCC1` [Example 46, ((R)-2-(benzofuran-3-yl)-1-(((((R)-1-(2-cyano-4-methyl-4-morpholinopent-2-enoyl)piperidin-2-yl)methoxy)carbonyl)amino)ethyl)boronic acid] the same measures were 187 nM and 1 nM.
The matching figures for `CC(C)(C=C(C#N)C(=O)N1C[C@@H]2C[C@@H]2[C@@H]1COC(=O)N[C@@H](Cc1ccc(C(F)(F)F)cc1)B(O)O)N1CCOCC1` [Example 114]: 2540 nM and 2.3 nM.
The matching figures for `CC(C)(C=C(C#N)C(=O)N1CCCC[C@@H]1COC(=O)N[C@@H](Cc1ccc(C#N)cc1)B(O)O)N1CCC(F)(F)C1` [Example 122, ((R)-1-(((((R)-1-(2-cyano-4-(3,3-difluoropyrrolidin-1-yl)-4-methylpent-2-enoyl)piperidin-2-yl)methoxy)carbonyl)amino)-2-(4-cyanophenyl)ethyl)boronic acid]: 4180 nM and 1.5 nM.
As to `CC(C)(C)C=C(C#N)C(=O)N1CCOC[C@@H]1COC(=O)N[C@@H](Cc1ccccc1)B(O)O` [Example 69, ((R)-1-(((((R)-4-(2-cyano-4,4-dimethylpent-2-enoyl)morpholin-3-yl)methoxy)carbonyl)amino)-2-phenylethyl)boronic acid], the half-maximal inhibitory concentration (IC50) stood at 670 nM in assay [1] and 3.2 nM in assay [2].
The matching figures for `C=CC(=O)N1C[C@@H]2C[C@@H]2[C@@H]1COC(=O)N[C@@H](Cc1ccc(C(F)(F)F)cc1)B(O)O` [Example 115, ((R)-1-(((((1S,2R,5R)-3-acryloyl-3-azabicyclo[3.1.0]hexan-2-yl)methoxy)carbonyl)amino)-2-(4-(trifluoromethyl)phenyl)ethyl)boronic acid]: 2930 nM and 2.6 nM.
The matching figures for `CC(C)(C=C(C#N)C(=O)N1CCC[C@]1(C)COC(=O)N[C@@H](Cc1coc2ccccc12)B(O)O)N1CCC(F)(F)C1` [Example 117, ((R)-2-(benzofuran-3-yl)-1-(((((R)-1-(2-cyano-4-(3,3-difluoropyrrolidin-1-yl)-4-methylpent-2-enoyl)-2-methylpyrrolidin-2-yl)methoxy)carbonyl)amino)ethyl)boronic acid]: 640 nM and 0.8 nM.
For `CC(C)(C=C(C#N)C(=O)N1CCCC[C@@H]1COC(=O)N[C@@H](Cc1coc2ccccc12)B(O)O)N1CCN(C2COC2)CC1` [Example 60, ((R)-2-(benzofuran-3-yl)-1-(((((R)-1-(2-cyano-4-methyl-4-(4-(oxetan-3-yl)piperazin-1-yl)pent-2-enoyl)piperidin-2-yl)methoxy)carbonyl)amino)ethyl)boronic acid] the same measures were 232 nM and 0.9 nM.
Consider `CC(C)(C=C(C#N)C(=O)N1CCC[C@@H]1COC(=O)N[C@@H](Cc1coc2ccccc12)B(O)O)N1CCN(C2COC2)CC1` [Example 44, ((R)-2-(benzofuran-3-yl)-1-(((((R)-1-(2-cyano-4-methyl-4-(4-(oxetan-3-yl)piperazin-1-yl)pent-2-enoyl)pyrrolidin-2-yl)methoxy)carbonyl)amino)ethyl)boronic acid], for which the IC50 in assay [1] was 396 nM; in assay [2] it was 2.3 nM.
For `CN(C)C/C=C/C(=O)N1CCC[C@@H]1COC(=O)N[C@@H](Cc1coc2ccccc12)B(O)O` [Example 49, ((R)-2-(benzofuran-3-yl)-1-(((((R)-1-((E)-4-(dimethylamino)but-2-enoyl)pyrrolidin-2-yl)methoxy)carbonyl)amino)ethyl)boronic acid] the same measures were 149 nM and 1.3 nM.
The matching figures for `CC(C)(C)C[C@H](NC(=O)OC[C@@]1(C)CCCN1C(=O)C(C#N)=CC(C)(C)N1CCC(F)(F)C1)B(O)O` [Example 118, ((R)-1-(((((R)-1-(2-cyano-4-(3,3-difluoropyrrolidin-1-yl)-4-methylpent-2-enoyl)-2-methylpyrrolidin-2-yl)methoxy)carbonyl)amino)-3,3-dimethylbutyl)boronic acid]: 570 nM and 1.5 nM.
For `CC(C)(C=C(C#N)C(=O)N1CCOC[C@@H]1COC(=O)N[C@@H](Cc1coc2ccccc12)B(O)O)N1CCOCC1` [Example 58, ((R)-2-(benzofuran-3-yl)-1-(((((R)-4-(2-cyano-4-methyl-4-morpholinopent-2-enoyl)morpholin-3-yl)methoxy)carbonyl)amino)ethyl)boronic acid] the same measures were 23 nM and 0.8 nM.
`Cc1ccc(C[C@H](NC(=O)OC[C@H]2COCCN2C(=O)C(C#N)=CC(C)(C)C)B(O)O)cc1` [Example 73, ((R)-1-(((((R)-4-(2-cyano-4,4-dimethylpent-2-enoyl)morpholin-3-yl)methoxy)carbonyl)amino)-2-(p-tolyl)ethyl)boronic acid]: the IC50 is 288 nM in assay [1] and 2.7 nM in assay [2].

Source of the values: US11154563B2, “Immunoproteasome inhibitors” (Principia Biopharma Inc., priority 2017, dated 2021).
